This assay relates to HT-1080 (ATCC, CCL-121) cells. Kind of assay: HT-1080 cell viability assay with ferroptosis inducer RSL3 (Cell Titer-Glo). The assay is classed as cell-based. Conditions: HT-1080 cells treated with RSL3, 3-fold, 10-point dilution, 1.1 μM highest concentration, read-out: EC50 (nM), ferroptosis inhibitory activity. In outline:
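HT-1080 cells (6000 per well) were cultured overnight at 37 °C, then co-treated with RSL3 and compound in a 3-fold, 10-point series topping at 1.1 μM. Viability was read by CellTiter-Glo luminescence and normalized to untreated controls. EC50 came from a sigmoidal non-linear regression fit.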
(In general: In ATP-based viability assays light output follows the ATP content of the culture.)

Data on 36 compounds can be found in patent US20240327393A1 (SIRONAX LTD., priority 2021, published 2024).

Molecules are shown by their SMILES. Read-outs that look alike come from different tables or passages of the source.

Broadly, the EC50 is the concentration at which the effect is half-maximal. As for `CN1C(=O)COc2cc(Nc3ccc(N4CC5CCC4CO5)c(F)c3)ccc21` (stereo not drawn) [Compound 98, 7-((4-(2-oxa-5-azabicyclo[2.2.2]octan-5-yl)-3-fluorophenyl)amino)-4-methyl-2H-benzo[b][1,4]oxazin-3(4H)-one], the EC50 (Homo sapiens, Table 2) fell in the range of 0.1 to 100 nM.

With `CN1C(=O)COc2cc(Nc3ccc(C4CCC(C)(C)CC4)cc3)ccc21` [Compound 35, 7-((4-(4,4-dimethylcyclohexyl)phenyl)amino)-4-methyl-2H-benzo[b][1,4]oxazin-3(4H)-one], the EC50 (Homo sapiens, Table 2) was 0.1 to 100 nM.

With `CN1C(=O)COc2cc(Nc3cnc(N4CCC(C(F)(F)F)CC4)c(F)c3)ccc21` [Compound 27, 7-((5-fluoro-6-(4-(trifluoromethyl)piperidin-1-yl)pyridin-3-yl)amino)-4-methyl-2H-benzo[b][1,4]oxazin-3(4H)-one], where the note is “Homo sapiens, Table 2”, the EC50 fell in the range of 0.1 to 100 nM.

On to `CC(C)C1CCN(c2ncc(Nc3ccc4c(c3)OCC(=O)N4C)cn2)CC1` [Compound 36, 7-((2-(4-isopropylpiperidin-1-yl)pyrimidin-5-yl)amino)-4-methyl-2H-benzo[b][1,4]oxazin-3(4H)-one], for which the EC50 (Homo sapiens, Table 2) fell in the range of 0.1 to 100 nM.

`Cn1cc(C(N)=O)c2ccc(Nc3ccc(N4CCC(C(F)(F)F)CC4)cc3)cc21` [Compound 403, 1-methyl-6-((4-(4-(trifluoromethyl)piperidin-1-yl)phenyl)amino)-1H-indole-3-carboxamide]: under “Homo sapiens, Table 2”, the EC50 lay within 0.1 to 100 nM. Consider `Cc1cc(N2CCC(O)(C(F)(F)F)CC2)ccc1Nc1ccc2c(c1)OCCC(=O)N2` [Compound 555, 8-((4-(4-hydroxy-4-(trifluoromethyl)piperidin-1-yl)-2-methylphenyl)amino)-2,3-dihydrobenzo[b][1,4]oxazepin-4(5H)-one], for which the EC50 (Homo sapiens, Table 3) was 0.1 to 100 nM. For `Cc1cc(Nc2ccc3c(c2)OCC(=O)N3C)ccc1N1CCC(C(F)(F)F)CC1` [Compound 86, 4-methyl-7-((3-methyl-4-(4-(trifluoromethyl)piperidin-1-yl)phenyl)amino)-2H-benzo[b][1,4]oxazin-3(4H)-one], where the note is “Homo sapiens, Table 2”, the EC50 fell in the range of 0.1 to 100 nM. The same measure, in the same setting: next, `CN1Cc2cc(Nc3ccc(N4CC(C)(C)C4)cc3)ccc2C1=O` [Compound 223, 5-((4-(3,3-dimethylazetidin-1-yl)phenyl)amino)-2-methylisoindolin-1-one]: 0.1 to 100 nM. On to `COC1(C(F)(F)F)CCN(c2ccc(Nc3ccc4c(c3)OCC(=O)N4C)cc2)CC1` [Compound 9, 7-((4-(4-methoxy-4-(trifluoromethyl)piperidin-1-yl)phenyl)amino)-4-methyl-2H-benzo[b][1,4]oxazin-3(4H)-one], for which, where the note is “Homo sapiens, Table 2”, the half-maximal effective concentration (EC50) fell in the range of 0.1 to 100 nM. On to `CC1CCN(c2ccc(Nc3cnc4c(c3)OCC(=O)N4)cc2)CC1` [Compound 596, 7-((4-(4-methylpiperidin-1-yl)phenyl)amino)-2H-pyrido[3,2-b][1,4]oxazin-3(4H)-one], for which, for the setting “Homo sapiens, Table 3”, the EC50 lay in the range of 0.1 to 100 nM. On to `O=C(C1CC1)N1Cc2ccc(Nc3ccc(N4CCC(C(F)(F)F)CC4)cc3)cc2C1` [Compound 190, cyclopropyl(5-((4-(4-(trifluoromethyl)piperidin-1-yl)phenyl)amino)isoindolin-2-yl)methanone], for which the EC50 (Homo sapiens, Table 2) lay within 0.1 to 100 nM. Take `Cn1ccc2cc(Nc3ccc4c(c3)n(C)c(=O)n4C)ccc21` [Compound 266, 1,3-dimethyl-5-((1-methyl-1H-indol-5-yl)amino)-1,3-dihydro-2H-benzo[d]imidazol-2-one]: where the note is “Homo sapiens, Table 2”, the EC50 fell in the range of 0.1 to 100 nM.

In the case of `Cc1cc(N2CC(OC(F)F)C2)ccc1Nc1ccc2c(c1)OCC(O)C(=O)N2` (stereo not drawn) [Compound 658, 8-[4-[3-(difluoromethoxy)azetidin-1-yl]-2-methyl-anilino]-3-hydroxy-3,5-dihydro-2H-1,5-benzoxazepin-4-one], for the setting “Homo sapiens, Table 3”, the EC50 fell in the range of 0.1 to 100 nM.

Turning to `CN1C(=O)COc2cc(Nc3ccc(N4CC5(CCC5)C4)cc3)ccc21` [Compound 21, 7-((4-(2-azaspiro[3.3]heptan-2-yl)phenyl)amino)-4-methyl-2H-benzo[b][1,4]oxazin-3(4H)-one], the EC50 (Homo sapiens, Table 2) was 0.1 to 100 nM.

In the case of `CC1CN(c2ccc(Nc3ccc4nn(C)cc4c3)cc2)CC(C)O1` (stereo not drawn) [Compound 423, N-(4-(2,6-dimethylmorpholino)phenyl)-2-methyl-2H-indazol-5-amine], under “Homo sapiens, Table 2”, the EC50 was 0.1 to 100 nM. In the case of `CN1C(=O)COc2cc(Nc3ccc(N4CC5CC(C4)O5)c(F)c3)ccc21` [Compound 99, 7-((4-(6-oxa-3-azabicyclo[3.1.1]heptan-3-yl)-3-fluorophenyl)amino)-4-methyl-2H-benzo[b][1,4]oxazin-3(4H)-one], the EC50 (Homo sapiens, Table 2) was in the range of 0.1 to 100 nM. For `Cc1cc(Nc2ccc3c(c2)OCC(=O)N3)cnc1N1CCC(C(F)(F)F)CC1` [Compound 150, 7-((5-methyl-6-(4-(trifluoromethyl)piperidin-1-yl)pyridin-3-yl)amino)-2H-benzo[b][1,4]oxazin-3(4H)-one], for the setting “Homo sapiens, Table 2”, the EC50 is 0.1 to 100 nM. Same read-out and setting: the figure for `COCCn1c(=O)oc2ccc(Nc3ccc(N4CCC(C(F)(F)F)CC4)cc3)cc21` [Compound 393] is 0.1 to 100 nM; for `Cc1cc(N2CC(C)OC(C)C2)ccc1Nc1ccc2[nH]ncc2c1` (stereo not drawn) [Compound 443, N-(4-(2,6-dimethylmorpholino)-2-methylphenyl)-1H-indazol-5-amine] it is 0.1 to 100 nM; for `CN1CCOc2cc(Nc3ccc(N4CCC(C(F)(F)F)CC4)cc3)ccc2C1=O` [Compound 346, 4-methyl-8-((4-(4-(trifluoromethyl)piperidin-1-yl)phenyl)amino)-3,4-dihydrobenzo[f][1,4]oxazepin-5(2H)-one] it is 100 to 1000 nM. In the case of `CCN1Cc2ccc(Nc3ccc(N4CCCCC4)c(C(F)(F)F)c3)cc2C1` [Compound 177, 2-ethyl-N-(4-(piperidin-1-yl)-3-(trifluoromethyl)phenyl)isoindolin-5-amine], where the note is “Homo sapiens, Table 2”, the EC50 was 0.1 to 100 nM.

Take `FC(F)(F)C1CCN(c2ccc(Nc3ccc4occc4c3)cc2)CC1` [Compound 337, N-(4-(4-(trifluoromethyl)piperidin-1-yl)phenyl)benzofuran-5-amine]: the EC50 (Homo sapiens, Table 2) lay in the range of 0.1 to 100 nM. With `Cc1cc(N2CCC(C(F)(F)F)CC2)ccc1Nc1ccc2c(c1)OCC(=O)N2` [Compound 100, 7-((2-methyl-4-(4-(trifluoromethyl)piperidin-1-yl)phenyl)amino)-2H-benzo[b][1,4]oxazin-3(4H)-one], the EC50 (Homo sapiens, Table 2) lay within 0.1 to 100 nM. With `CCN1Cc2cc(Nc3ccc(N4CCC(C(F)(F)F)CC4)cc3)ccc2C1=O` [Compound 180, 2-ethyl-5-((4-(4-(trifluoromethyl)piperidin-1-yl)phenyl)amino) isoindolin-1-one], where the note is “Homo sapiens, Table 2”, the EC50 is 0.1 to 100 nM. With `Cc1cc(N2CCC(C(F)(F)F)CC2)ccc1Nc1ccc2c(c1)OCC(=O)N2` [Compound 515, 7-((2-methyl-4-(4-(trifluoromethyl)piperidin-1-yl)phenyl)amino)-2H-benzo[b][1,4]oxazin-3(4H)-one], the EC50 (Table 3) lay within 0.1 to 100 nM. As to `Cn1c(=N)n(C)c2cc(Nc3ccc(N4CCC(C(F)(F)F)CC4)cc3)ccc21` [Compound 302, 2-imino-1,3-dimethyl-N-(4-(4-(trifluoromethyl)piperidin-1-yl)phenyl)-2,3-dihydro-1H-benzo[d]imidazol-5-amine], the EC50 (Homo sapiens, Table 2) fell in the range of 0.1 to 100 nM. Still for that read-out and setting: the figure for `Cn1c(=O)oc2ccc(Nc3cnc(N4CCC(C(F)(F)F)CC4)c(F)c3)cc21` [Compound 388, 5-((5-fluoro-6-(4-(trifluoromethyl)piperidin-1-yl)pyridin-3-yl)amino)-3-methylbenzo[d]oxazol-2(3H)-one] is 0.1 to 100 nM.

As for `CC1CN(c2ccc(Nc3ccc4c(c3)OCC(=O)N4C)cc2)CCO1` (stereo not drawn) [Compound 149, 4-methyl-7-((4-(2-methylmorpholino)phenyl)amino)-2H-benzo[b][1,4]oxazin-3(4H)-one], the EC50 (Homo sapiens, Table 2) lay in the range of 0.1 to 100 nM. Turning to `CC1CC(C(F)(F)F)CCN1c1ccc(Nc2ccc3c(c2)OCC(=O)N3)cc1` (stereo not drawn) [Compound 642, 7-((4-(2-methyl-4-(trifluoromethyl)piperidin-1-yl)phenyl)amino)-2H-benzo[b][1,4]oxazin-3(4H)-one], the EC50 (Homo sapiens, Table 3) fell in the range of 0.1 to 100 nM.

Regarding `CC1CCN(c2ccc(Nc3ccc4c(ccn4C)c3)cc2)CC1` [Compound 329, 1-methyl-N-(4-(4-methylpiperidin-1-yl)phenyl)-1H-indol-5-amine], the EC50 (Homo sapiens, Table 2) lay within 0.1 to 100 nM. Turning to `CC1CCC(N2Cc3cc(Nc4ccc(N5CCC(C(F)(F)F)CC5)cc4)ccc3C2=O)CC1` (stereo not drawn) [Compound 221, 2-(4-methylcyclohexyl)-5-((4-(4-(trifluoromethyl)piperidin-1-yl)phenyl)amino)isoindolin-1-one], the EC50 (Homo sapiens, Table 2) was in the range of 0.1 to 100 nM. `CC1CCN(c2ccc(Nc3ccc4c(c3)N(C)CC4(C)C)cc2)CC1` [Compound 338, 1,3,3-trimethyl-N-(4-(4-methylpiperidin-1-yl)phenyl)indolin-6-amine]: the EC50 (Homo sapiens, Table 2) fell in the range of 0.1 to 100 nM.

For `FC(F)(F)C1CCN(c2ccc(Nc3ccc4cnoc4c3)cc2)CC1` [Compound 358, N-(4-(4-(trifluoromethyl)piperidin-1-yl)phenyl)benzo[d]isoxazol-6-amine], the EC50 (Homo sapiens, Table 2) fell in the range of 0.1 to 100 nM. The same measure, in the same setting: the figure for `CN1Cc2cc(Nc3ccc(N4CCC(C(F)(F)F)CC4)cc3)cc(Cl)c2C1=O` [Compound 203, 7-chloro-2-methyl-5-((4-(4-(trifluoromethyl)piperidin-1-yl)phenyl)amino) isoindolin-1-one] is 0.1 to 100 nM; for `COC1(C(F)(F)F)CCN(c2ccc(Nc3ccc4c(c3)n(C)c(=O)n4C)cc2)CC1` [Compound 384, 5-((4-(4-methoxy-4-(trifluoromethyl)piperidin-1-yl)phenyl)amino)-1,3-dimethyl-1,3-dihydro-2H-benzo[d]imidazol-2-one] it is 0.1 to 100 nM.

Turning to `CC1CCN(c2ccc(Nc3ccc4c(c3)CN(C)C4=O)cc2)CC1` [Compound 174, 2-methyl-5-((4-(4-methylpiperidin-1-yl)phenyl)amino)isoindolin-1-one], for the setting “Homo sapiens, Table 2”, the EC50 is 0.1 to 100 nM.
